Among the data in the Bradley open melting point set (2014) are melting point values, retold here.

Broadly, the melting point is the temperature of the solid-liquid transition.

Compound `CC(C)NCC(O)COc1cccc2[nH]ccc12` (centres undefined) [pindolol] returned a melting point of 170 °C.

With `CCOP(=S)(OCC)Oc1nc(Cl)n(C(C)C)n1` [isazophos], the melting point stood at 25 °C. Compound `O=C1CC(c2ccccc2)Oc2cc(O)ccc21` (centres undefined) [7-hydroxyflavanone] registered a melting point of 188 °C. In turn, `CCOC(=O)c1ccc(O)cc1` [Ethyl 4-hydroxybenzoate] showed a melting point of 116 °C.

Turning to `O=C(O)c1cc(=O)[nH]c(=O)[nH]1` [orotic acid], the melting point came to 345 °C.

For the compound `N#CCCCCCCCCCCC#N` [1,10-decanedicarbonitrile], the melting point was determined as 18 °C. In the case of `O=C(O)/C(=C/c1ccccc1[N+](=O)[O-])c1ccccc1` [(E)-2-phenyl-3-(2-nitrophenyl)propenoic acid] it was 198 °C; in that of `OCCCCCO` [1,5-pentanediol], -16 °C; in that of `O=C(CBr)c1ccc2ccccc2c1` [2-(bromoacetyl)naphthalene], 83 °C. `CC(C(O)c1ccc(O)cc1)N1CCC(Cc2ccccc2)CC1` (centres undefined) [ifenprodil] showed a melting point of 114 °C.

`CN(C)C(=O)Nc1ccc(Cl)cc1` [N-(4-chlorophenyl)-N',N'-dimethylurea] yielded a melting point of 173 °C.

`O=C(O)CCc1ccc(O)cc1` [Desaminotyrosine] displayed a melting point of 130 °C. `COc1ccccc1N1CCNCC1` [1-(2-methoxyphenyl)piperazine] came in with a melting point of 37 °C. Take `Nc1cc(C(F)(F)F)ccc1[N+](=O)[O-]` [2-nitro-5-(trifluoromethyl)aniline]: the melting point came to 100 °C. Regarding `O=C(Cl)c1nc2ccccc2s1` [benzothiazole-2-carbonyl chloride], the melting point came out at 114 °C. `Nc1cccc(O)c1` [m-aminophenol] registered a melting point of 125 °C. `CCCCCCCCNCCCCCCCC` [N-Octyloctan-1-amine] yielded a melting point of 14 °C. In the case of `CCC1(CCC(C)C)C(=O)NC(=O)NC1=O` [Inmetal], the melting point was 156 °C. Regarding `COc1ccc(C(=O)CCC(=O)O)cc1OC` [3-(3,4-dimethoxybenzoyl)propionic acid], the melting point worked out at 160 °C.

In the case of `O=C1Nc2ccc(Cl)cc2C(c2ccccc2Cl)=NC1O` (centres undefined) [lorazepam], the melting point was 167 °C. `O=C1CCCCCCCCCCCCCCO1` [pentadecanolide] had a melting point of 35 °C. In the case of `Cc1cc(I)cc(C)c1O` [2,6-dimethyl-4-iodophenol] it was 97 °C; in that of `CC(C)(N)CO` [2-amino-2-methyl-1-propanol], 26 °C. In the case of `CCCCOC(=O)c1ccccc1` [butyl_benzoate] it was -12 °C; in that of `COc1cccc(OC)c1OCC(=O)O` [2,6-dimethoxyphenoxyacetic acid], 81 °C; in that of `N#Cc1cc(C(F)(F)F)ccc1Cl` [2-chloro-5-(trifluoromethyl)benzonitrile], 39 °C. Compound `Cc1cc(O)c(C)c(=O)o1` [3,6-dimethyl-4-hydroxy-2-pyrone] yielded a melting point of 210 °C. In the case of `O=NN1CN2CN(C1)CN(N=O)C2` [3,7-Dinitroso-1,3,5,7-tetraazabicyclo[3.3.1]nonane] it was 207 °C; in that of `Cc1nn(C)c(C)c1C=O` [1,3,5-trimethyl-1h-pyrazole-4-carboxaldehyde], 82 °C; in that of `CCCCCC(C)=O` [2-heptanone], -35 °C. In turn, `C[C@]12CCC(=O)C=C1CC[C@@H]1[C@@H]2[C@@H](O)C[C@@]2(C)[C@H]1CC[C@]2(O)C(=O)CO` [hydrocortisone] displayed a melting point of 221 °C.

In the case of `ON=C(c1ccccc1)c1ccccn1` [phenyl 2-pyridyl ketoxime], the melting point was 155 °C. In the case of `CC(C)(C)c1ccc(C(C)(C)C)cc1` [p-di-tert-butylbenzene] it was 74 °C; in that of `C=C[C@H]1C[N@@]2CC[C@H]1C[C@H]2[C@H](O)c1ccnc2ccccc12` [cinchonidine], 204 °C.

In the case of `Cn1ncc(Br)c1N` [5-amino-4-bromo-1-methyl-1h-pyrazole], the melting point was 99 °C.

`O=C(O)COC(=O)Cc1ccccc1Nc1c(Cl)cccc1Cl` [aceclofenac]: the melting point worked out at 149 °C. Take `C=C(C)CC` [2-Methylbut-1-ene]: the melting point is -137 °C. In the case of `Clc1cc(Cl)cc(-c2nnn[nH]2)c1` [5-(3,5-dichlorophenyl)-1h-tetrazole] it was 207 °C; in that of `Cc1noc(NS(=O)(=O)c2ccc(N)cc2)c1C` [Sulfisoxazole], 194 °C. In the case of `O=c1c(O)c(-c2ccc(O)cc2)oc2ccccc12` [3,4'-dihydroxyflavone] it was 286 °C; in that of `CCCCC(CC)CO` (centres undefined) [2-ethyl-1-hexanol], -76 °C. `CC(=O)Nc1ccc(O)cc1` [acetaminophen]: the melting point was 170 °C. As to `CCN(CC)CC` [triethylamine], the melting point is -115 °C.

Take `O=C(O)CCCCC=C(c1ccccc1)c1cccnc1` [isbogrel]: the melting point turned out to be 114 °C.

`CCC1=Nc2ccccc2C1(C)C(=O)OC` (centres undefined) [methyl 2-ethyl-3-methyl-3H-indole-3-carboxylate] displayed a melting point of 72 °C.

In turn, `NS(=O)(=O)c1cc(C(=O)O)c(NCc2ccco2)cc1Cl` [Furosemide] yielded a melting point of 206 °C. In the case of `O=C(C1CCCCC1)N1CC(=O)N2CCc3ccccc3C2C1` (centres undefined) [Praziquantel] it was 136 °C; in that of `COc1ccc2ncccc2c1` [6-methoxyquinoline], 19 °C. Compound `Clc1ccc(SSc2ccc(Cl)cc2)cc1` [bis(4-chlorophenyl) disulfide] gave a melting point of 73 °C. In the case of `O=[N+]([O-])c1c(Cl)c(Cl)cc(Cl)c1Cl` [2,3,5,6-tetrachloro-nitrobenzene] it was 99.5 °C; in that of `CCC(=O)c1ccc(O)cc1O` [2',4'-dihydroxypropiophenone], 100 °C; in that of `CCOC(=O)/C(C(N)=S)=C1/NN=C(c2ccc(Cl)cc2)O1`, 176 °C.

Regarding `N#CCc1ccccc1O` [o-hydroxy_phenylacetonitrile], the melting point was 122 °C.

As for `C/C=C/c1ccccc1` [trans-1-phenyl-1-propene], the melting point was -29 °C.

In turn, `COc1ccc(Br)c(OC)c1C(=O)O` [3-bromo-2,6-dimethoxybenzoic acid] gave a melting point of 146 °C. `CC(C)c1cccc(C(C)C)c1` [m-diisopropylbenzene] displayed a melting point of -63 °C. In the case of `NC(=O)c1ccc(N)cc1` [4-aminobenzamide] it was 183 °C.

Compound `N#CCCCCC#N` [1,4-dicyanobutane] yielded a melting point of 2 °C. `CC(=O)Nc1ccccc1C(=O)O` [2-acetamidobenzoic acid] gave a melting point of 186 °C.

Regarding `CCCCCCCCCCO` [Decan-1-ol], the melting point amounted to 7 °C.

For the compound `O=c1cc(-c2ccccc2)oc2c1ccc1ccccc12` [alpha-naphthoflavone], the melting point was 158 °C. Turning to `c1ccc2c(c1)ccc1ccccc12` [Phenanthrene], the melting point came to 100 °C.

`Cc1ccc(-n2ncccc2=O)cc1` [2-(4-Methylphenyl)pyridazin-3(2H)-one]: the melting point came out at 97.8 °C. The compound `CN1CCC(=C2c3ccccc3C=Cc3ccccc32)CC1` [cyproheptadine] registered a melting point of 113 °C.

In turn, `C[C@@H](Cl)CCl` [1,2-Dichloro-Propane] showed a melting point of -100 °C. The compound `CCCCCCCC/C=CCCCCCCCCCCCC(=O)O` [erucic acid] registered a melting point of 31 °C. As to `O=C(O)C1CC=CCC1` (centres undefined) [3-cyclohexene-1-carboxylic acid], the melting point came out at 17 °C. For `O=C(Cl)c1cc(Cl)cc(Cl)c1` [3,5-dichlorobenzoyl chloride], the melting point stood at 26 °C. In the case of `Nc1ccc(-c2cccs2)cc1` [4-(2-thienyl)aniline] it was 76 °C; in that of `O=C(O)C(Cl)(Cl)Cl` [Trichloroacetic acid], 57 °C; in that of `CC[C@H]1OC(=O)[C@H](C)[C@@H](O[C@H]2C[C@@](C)(OC)[C@@H](O)[C@H](C)O2)[C@H](C)[C@@H](O[C@@H]2O[C@H](C)C[C@H](N(C)C)[C@H]2O)[C@](C)(O)C[C@@H](C)C(=O)[C@H](C)[C@@H](O)[C@]1(C)O` [Erythromycin], 191 °C. Compound `CC(C)(C)NCC(O)COc1cccc2c1CC(O)C(O)C2` (centres undefined) showed a melting point of 124 °C. Compound `O=C(O)c1ccc([N+](=O)[O-])c(O)c1` [3-hydroxy-4-nitrobenzoic acid] yielded a melting point of 234 °C. Compound `O=Cc1ccc(C=O)cc1` [terephthalaldehyde] came in with a melting point of 116 °C. Regarding `CN(C)CCOc1ccc(/C(=C(/CCCl)c2ccccc2)c2ccccc2)cc1` [Toremifene], the melting point was 109 °C.

As to `O=C(O)Cc1cc(O)ccc1O` [2,5-dihydroxyphenylacetic_acid], the melting point is 127 °C. For `Cc1cc(Cl)c(C)cc1Cl` [2,5-Dichloro-p-xylene], the melting point worked out at 70 °C. `c1ccc2c(c1)CC1(OCCO1)c1ccccc1CC21OCCO1`: the melting point amounted to 144 °C. For the compound `C1=C(c2ccccc2)Cc2ccccc21` [2-Phenylindene], the melting point worked out at 167 °C. As for `CCCCCCC=O` [Heptanal], the melting point was -43 °C. The compound `OC[C@H]1O[C@@](CO)(O[C@H]2O[C@H](CO)[C@@H](O)[C@H](O)[C@H]2O)[C@@H](O)[C@@H]1O` [sucrose] showed a melting point of 188 °C. With `[2H]C([2H])([2H])[2H]` [(~2~H_4_)Methane], the melting point is -183 °C. With `COc1ccc(N)cc1` [p-anisidine], the melting point was determined as 58 °C. With `O=C1CCC(=O)N1C1CCCCC1` [N-(cyclohexyl)succinimide], the melting point was 165 °C. `C#CCCCCCCCCCCCCC` [1-pentadecyne] came in with a melting point of 10 °C.

Turning to `Nc1c(Cl)cccc1Cl` [2,6-dichloroaniline], the melting point stood at 40 °C.

Regarding `CC#CC` [2-butyne], the melting point is -32 °C. `O=C1CCCCCCC1` [cyclooctanone] showed a melting point of 40 °C. As to `c1ccc2c(c1)c1ccccc1c1ccccc21` [triphenylene], the melting point came out at 199 °C.
